pKi: −log10 of the molar value.
Biological target: T1, human capsaicin receptor (VR1) (Homo sapiens, UniProt Q8NER1)
T1 construct: transfected with the pBK-CMV expression construct encoding the full length human capsaicin receptor; expressed in transfected cells
Assay: Capsaicin receptor binding assay ([3H]RTX competition)
Settings: read-out: Ki
Excerpt: This Example illustrates the preparation of VR1-transfected cells and membrane preparations for use in binding assays (Example 5) and functional assays (Example 6).
A cDNA encoding full length human capsaicin receptor (SEQ ID NO: 1, 2 or 3 of U.S. Pat. No. 6,482,611) was subcloned in the plasmid pBK-CMV (Stratagene, La Jolla, Calif.) for recombinant expression in mammalian cells.
Human embryonic kidney (HEK293) cells were transfected with the pBK-CMV expression construct encoding the full length human capsaicin receptor using standard methods. The transfected cells were selected for two weeks in media containing G418 ([…]) to obtain a pool of stably transfected cells. Independent clones were isolated from this pool by limiting dilution to obtain clonal stable cell lines for use in subsequent experiments.
For radioligand binding experiments, cells were seeded in T175 cell culture flasks in media without antibiotics and grown to approximately 90% confluency. The flasks were then washed with PBS and harvested in PBS containing 5 mM EDTA. The cells were pelleted by gentle centrifugation and stored at −80° C. until assayed.
Previously frozen cells were disrupted with the aid of a tissue homogenizer in ice-cold HEPES homogenization buffer (5mM KCl 5, 5.8 mM NaCl, 0.75 mM CaCl2, 2 mM MgCl2, 320 mM sucrose, and 10 mM HEPES pH 7.4). Tissue homogenates were first centrifuged for 10 minutes at 1000×g (4° C.) to remove the nuclear fraction and debris, and then the supernatant from the first centrifugation is further centrifuged for 30 minutes at 35,000×g (4° C.) to obtain a partially purified membrane fraction. Membranes were resuspended in the HEPES homogenization buffer prior to the assay. An aliquot of this membrane homogenate is used to determine protein concentration via the Bradford method (BIO-RAD Protein Assay Kit, #500-0001, BIO-RAD, Hercules, Calif.).
This Example illustrates a representative assay of capsaicin receptor binding that may be used to determine the binding affinity of compounds for the capsaicin (VR1) receptor.
Binding studies with [^3H] Resiniferatoxin (RTX) are carried out essentially as described by Szallasi and Blumberg (1992) J. Pharmacol. Exp. Ter. 262: 883-888. In this protocol, non-specific RTX binding is reduced by adding bovine alpha, acid glycoprotein (100 μg per tube) after the binding reaction has been terminated.
[^3H] RTX (37 Ci/mmol) is synthesized by and obtained from the Chemical Synthesis and Analysis Laboratory, National Cancer Institute-Frederick Cancer Research and Development Center, Frederick, Md. [^3H] RTX may also be obtained from commercial vendors (e.g., Amersham Pharmacia Biotech, Inc.; Piscataway, N.J.).
The membrane homogenate of Example 4 is centrifuged as before and resuspended to a protein concentration of 333 μg/ml in homogenization buffer. Binding assay mixtures are set up on ice and contain [^3H]JRTX (specific activity 2200 mCi/ml), 2 μl non-radioactive test compound, 0.25 mg/ml bovine serum albumin (Cohn fraction V), and 5×10^4−1×10^5 VR1-transfected cells. The final volume is adjusted to 500 μl (for competition binding assays) or 1,000 μl (for saturation binding assays) with the ice-cold HEPES homogenization buffer solution (pH 7.4) described above. Non-specific binding is defined as that occurring in the presence of 1 μM non-radioactive RTX (Alexis Corp.; San Diego, Calif.). For saturation binding, [^3H]RTX is added in the concentration range of […], using 1 to 2 dilutions. Typically 11 concentration points are collected per saturation binding curve.
Competition binding assays are performed in the presence of 60 pM [^3H]RTX and various concentrations of test compound. The binding reactions are initiated by transferring the assay mixtures into a 37° C. water bath and are terminated following a 60 minute incubation period by cooling the tubes on ice.

T1 sequence (Q8NER1 whole entry): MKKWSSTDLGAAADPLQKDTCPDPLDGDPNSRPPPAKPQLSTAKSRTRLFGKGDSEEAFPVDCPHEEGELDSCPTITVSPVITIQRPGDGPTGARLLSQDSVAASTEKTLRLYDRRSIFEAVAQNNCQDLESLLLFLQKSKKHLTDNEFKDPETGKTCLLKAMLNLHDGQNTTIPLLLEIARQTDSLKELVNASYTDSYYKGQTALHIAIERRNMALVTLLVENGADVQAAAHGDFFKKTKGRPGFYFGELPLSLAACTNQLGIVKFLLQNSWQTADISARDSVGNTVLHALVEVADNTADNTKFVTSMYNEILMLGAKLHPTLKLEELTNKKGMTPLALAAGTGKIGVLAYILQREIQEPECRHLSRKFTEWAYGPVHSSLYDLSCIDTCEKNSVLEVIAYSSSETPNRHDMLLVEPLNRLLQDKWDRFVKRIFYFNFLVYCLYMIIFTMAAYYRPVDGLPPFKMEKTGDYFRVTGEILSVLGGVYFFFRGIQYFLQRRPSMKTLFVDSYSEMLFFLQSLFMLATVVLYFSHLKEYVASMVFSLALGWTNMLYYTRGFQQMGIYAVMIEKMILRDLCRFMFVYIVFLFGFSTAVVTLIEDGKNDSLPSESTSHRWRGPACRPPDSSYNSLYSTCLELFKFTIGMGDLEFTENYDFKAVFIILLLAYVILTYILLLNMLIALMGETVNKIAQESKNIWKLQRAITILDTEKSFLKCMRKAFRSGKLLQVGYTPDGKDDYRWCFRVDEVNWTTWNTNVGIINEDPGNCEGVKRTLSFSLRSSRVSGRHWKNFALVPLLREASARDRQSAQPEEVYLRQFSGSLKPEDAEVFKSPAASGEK

Row | SMILES | pKi
1 | CCCN1CCCCC1c1ccc(C(=O)Nc2ccc(C(C)(C)C)cc2)cc1 (stereo not shown) [Compound 399, N-(4-tert-Butyl-phenyl)-4-(1-propyl-piperidin-2-yl)-benzamide] | > 6.00
2 | O=C(Nc1ccccc1C(F)(F)F)c1ccc(-c2ccccc2Cl)nc1 [Compound 64, 6-(2-Chloro-phenyl)-N-(2-trifluoromethyl-phenyl)-nicotinamide] | > 6.00
3 | CC(C)(C)c1ccc(NC(=O)c2ccc(-c3ccccc3N(S(C)(=O)=O)S(C)(=O)=O)nc2)cc1 [Compound 451, N-(4-tert-Butyl-phenyl)-6-[2-(N,N-dimethanesulfonyl)amino-phenyl]-nicotinamide] | > 6.00
4 | Cc1nc2cc(NC(=O)c3ccc(-c4cccc(F)c4)nc3)ccc2s1 [Compound 125] | > 6.00
5 | Cc1ccc(NC(=O)c2ccc(-c3ccccc3)nc2)cc1C [Compound 249, N-(3,4-Dimethyl-phenyl)-6-phenyl-nicotinamide] | > 6.00
6 | Cc1ccccc1-c1ccc(C(=O)Nc2ccc3c(c2)CCC3)cn1 [Compound 470, N-Indan-5-yl-6-o-tolyl-nicotinamide] | > 6.00
7 | COc1ccccc1-c1ccc(C(=O)Nc2ccc(C(C)C)cc2)cn1 [Compound 378, N-(4-Isopropyl-phenyl)-6-(2-methoxy-phenyl)-nicotinamide] | > 6.00
8 | CC(C)(C)c1ccc(NC(=O)c2ccc(-c3ccccc3F)nc2)cc1 [Compound 443, N-(4-tert-Butyl-phenyl)-6-(2-fluoro-phenyl)-nicotinamide] | > 6.00
9 | CC(C)(C)[C@H]1CC[C@@H](NC(=O)c2ccc(-c3ncccc3Cl)cc2)CC1 [Compound 393, N-(4-tert-Butyl-cyclohexyl)-4-(3-chloro-pyridin-2-yl)-benzamide (cis)] | > 6.00
10 | CC(C)(C)c1ccc(NC(=O)c2ccc(-c3ccncc3)nc2)cc1 [Compound 11, [2,4′]Bipyridinyl-5-carboxylic acid (4-tert-butyl-phenyl)-amide] | > 6.00
11 | COc1cccc(-c2ccc(C(=O)Nc3ccc(C)c(F)c3)cn2)c1 [Compound 268, N-(3-Fluoro-4-methyl-phenyl)-6-(3-methoxy-phenyl)-nicotinamide] | > 6.00
12 | CC(C)(C)c1ccc(NC(=O)c2ccc(-c3ncccc3CO)cc2)cc1 [Compound 412, N-(4-tert-Butyl-phenyl)-4-(3-hydroxymethyl-pyridin-2-yl)-benzamide] | > 6.00
13 | Cc1cccc(C)c1-c1ccc(C(=O)Nc2ccc(C(C)(C)C)cc2)cn1 [Compound 439, N-(4-tert-Butyl-phenyl)-6-(2,6-dimethyl-phenyl)-nicotinamide] | > 6.00
14 | Cc1cccc(-c2ccc(C(=O)Nc3ccc(C)c(C)c3)cn2)c1 [Compound 247, N-(3,4-Dimethyl-phenyl)-6-m-tolyl-nicotinamide] | > 6.00
15 | O=C(Nc1ccc(C2CCCC2)cc1)c1ccc(-c2ncccc2F)cc1 [Compound 363, N-(4-Cyclopenyl-phenyl)-4-(3-fluoro-pyridin-2-yl)-benzamide] | > 6.00
16 | CC(C)(C)c1ccc(NC(=O)c2ccc(-c3ncccc3F)cc2)cc1 [Compound 409, N-(4-tert-Butyl-phenyl)-4-(3-fluoro-pyridin-2-yl)-benzamide] | > 6.00
17 | CC(C)(C)c1ccc(NC(=O)c2ccc(-c3ncccc3NC3CCCC3)cc2)cc1 [Compound 406, N-(4-tert-Butyl-phenyl)-4-(3-cyclopentylamino-pyridin-2-yl)-benzamide] | > 6.00
18 | O=C(Nc1cccc(C(F)(F)F)c1)c1ccc(-c2ccccc2F)nc1 [Compound 88, 6-(2-Fluoro-phenyl)-N-(3-trifluoromethyl-phenyl)-nicotinamide] | > 6.00
19 | Cc1ccc(NC(=O)c2ccc(-c3ccccc3C)nc2)cc1C [Compound 248, N-(3,4-Dimethyl-phenyl)-6-o-tolyl-nicotinamide] | > 6.00

Row | SMILES | pKi
20 | COc1cccc(-c2ccc(C(=O)Nc3ccc(C(C)(C)C)cc3)cn2)c1 [Compound 449, N-(4-tert-Butyl-phenyl)-6-(3-methoxy-phenyl)-nicotinamide] | > 6.00
21 | COc1cccc(NC(=O)c2ccc(-c3cccc(C)c3)nc2)c1 [Compound 280, N-(3-Methoxy-phenyl)-6-m-tolyl-nicotinamide] | > 6.00
22 | CC(C)(C)c1ccc(NC(=O)c2ccc(-c3cccc(F)c3)nc2)cc1 [Compound 448, N-(4-tert-Butyl-phenyl)-6-(3-fluoro-phenyl)-nicotinamide] | > 6.00
23 | CS(=O)(=O)N(c1cccnc1-c1ccc(C(=O)Nc2ccc(C(F)(F)F)cc2)cc1)S(C)(=O)=O [Compound 456, N-(4-Trifluoromethyl-phenyl)-4-[3-(N,N-dimethanesulfonyl)amino-pyridin-2-yl]-benzamide] | > 6.00
24 | CC(C)(C)c1ccc(NC(=O)c2ccc(-c3ccc4[nH]ccc4c3)cc2)cc1 [Compound 396, N-(4-tert-Butyl-phenyl)-4-(1H-indol-5-yl)-benzamide] | > 6.00
25 | O=C(Nc1ccc(C(F)(F)F)cc1)c1ccc(-c2ncccc2F)cc1 [Compound 35, 4-(3-Fluoro-pyridin-2-yl)-N-(4-trifluoromethyl-phenyl)-benzamide] | > 6.00
26 | CC(C)(C)c1ccc(NC(=O)c2ccc(-c3ccccc3)nc2)cc1 [Compound 454, N-(4-tert-Butyl-phenyl)-6-phenyl-nicotinamide] | > 6.00
27 | CC(C)(C)c1ccc(NC(=O)c2ccc(-c3ccccc3CO)nc2)cc1 [Compound 444, N-(4-tert-Butyl-phenyl)-6-(2-hydroxymethyl-phenyl)-nicotinamide] | > 6.00
28 | O=C(Nc1cnc2ccccc2c1)c1ccc(-c2ccccc2Cl)nc1 [Compound 82, 6-(2-Chloro-phenyl)-N-quinolin-3-yl-nicotinamide] | > 6.00
29 | CC(C)(C)c1ccc(NC(=O)c2ccc(-c3ncccc3NO)cc2)cc1 [Compound 411, N-(4-tert-Butyl-phenyl)-4-(3-hydroxyamino-pyridin-2-yl)-benzamide] | > 6.00
30 | Cc1ccc(S(=O)(=O)Nc2cccnc2-c2ccc(C(=O)Nc3ccc(C(C)(C)C)cc3)cc2)cc1 [Compound 428, N-(4-tert-Butyl-phenyl)-4-[3-(toluene-4-sulfonylamino)-pyridin-2-yl]-benzamide] | > 6.00
31 | Cc1ccc(NC(=O)c2ccc(-c3cccc(C(C)C)c3)nc2)cc1F [Compound 267, N-(3-Fluoro-4-methyl-phenyl)-6-(3-isopropyl-phenyl)-nicotinamide] | > 6.00
32 | CC(C)(C)c1ccc(NC(=O)c2ccc(C3CCCCN3)cc2)cc1 (stereo not shown) [Compound 429, N-(4-tert-Butyl-phenyl)-4-piperidin-2-yl-benzamide] | > 6.00
33 | CC(C)(C)c1ccc(NC(=O)c2ccc(-c3ncc(Cl)cc3Cl)cc2)cc1 [Compound 400, N-(4-tert-Butyl-phenyl)-4-(3,5-dichloro-pyridin-2-yl)-benzamide] | > 6.00
34 | CC(C)(C)c1ccc(NC(=O)c2ccc(-c3ccccc3C(F)(F)F)cc2O)cc1 [Compound 21, 3-Hydroxy-2′-trifluoromethyl-biphenyl-4-carboxylic acid (4-tert-butyl-phenyl)-amide] | > 6.00
35 | CC(C)(C)c1ccc(NC(=O)c2cnc(-c3ccccc3)c(Cl)c2)cc1 [Compound 436, N-(4-tert-Butyl-phenyl)-5-chloro-6-phenyl-nicotinamide] | > 6.00
36 | CC(C)c1cccc(-c2ccc(C(=O)Nc3ccc4c(c3)CCC4)cn2)c1 [Compound 462, N-Indan-5-yl-6-(3-isopropyl-phenyl)-nicotinainide] | > 6.00
37 | Cc1ccccc1-c1ccc(C(=O)Nc2ccc(C(C)C)cc2)cn1 [Compound 384, N-(4-Isopropyl-phenyl)-6-o-tolyl-nicotinamide] | > 6.00
